Series [1] is described as follows: Stability of crystal forms in sodium phosphate/hydrochloric acid buffer pH=6.8 (37° C.). As to conditions: for Purity: pH = 6.8 buffer, 37° C. The format is physicochemical. The method, then:
1. Test on Stability of Crystal Forms in Different Media
1.1 Stability of Different Crystal Forms in Sodium Phosphate/Hydrochloric Acid Buffer pH=6.8 (37° C.)

Series [2] in a line: Affect factor test: related substance and transformation in crystal form (10 days). The format is physicochemical. As to conditions: for Purity, High temperature (60° C.) / Purity, High humidity (RH = 92.5%) / Purity, Illumination (ultraviolet lamp): 10 days; for Crystal form: after 10 days at high temperature, high humidity or illumination; for Purity of raw material: before the affect factor test (baseline); for Stability of purity: high temperature, high humidity, or illumination, 10 days later. The text has this: (§1) 3. Affect Factor Test of Different Crystal Forms
3.1 Related Substance and Transformation in Crystal Form (10 Days)

The nature of a further series: Hygroscopicity. The format is physicochemical. How it is done:
(§2) 3.2 Change in Appearance and Hygroscopicity (10 Days)
Hygroscopicity was measured by reference to methods in Appendix X IX J Laboratory Procedure on Determination of Hygroscopicity of Drugs in Pharmacopoeia of The People's Republic of China (2010).

For series [3], the system named is human colorectal cancer cell SW480. The series can be described thus: MTT proliferation inhibition, SW480. The format is cell-based. An excerpt: (§3) The tumor cells included, but were not limited to the following cells: human colorectal cancer cell SW480, human gastric adenocarcinoma cell MGC-803, human […], human lymphoma cell U937, human liver cancer cell Hep-G2, human cervical cancer cell Hela, human neuroglioma cell BT-325, human medulloblastoma D341 Med, and human gallbladder cancer cell GBC-SD.
(§4) Experimental method: cells in exponential growth phase were collected, and seeded to a 96-well cell culture plate, at a final concentration of 5×10^3 cells/90 μl/well. […] After the treatment for 72 h, 10 μl MTT solution (5 mg/ml, Sigma) was added to each well, and the cells were further cultured for 4 h. The culture medium was discarded, 100 μl DMSO was added to each well, and dissolution was carried out under rotation on a shaking table for 10 min.

The subject of series [4] is human gastric adenocarcinoma cell MGC-803. As to the kind of experiment: MTT proliferation inhibition, MGC-803. The format is cell-based. As to conditions: MGC-803, MTT.
Description: as §3, §4

Series [5] concerns human small cell lung adenocarcinoma cell A549. The series can be described thus: MTT proliferation inhibition, A549. The format is cell-based.
Description: as §3, §4

The next series concerns human lymphoma cell U937. As to the kind of experiment: MTT proliferation inhibition, U937. The format is cell-based.
Description: as §3, §4

In series [6] the test system is human liver cancer cell Hep-G2. The series can be described thus: MTT proliferation inhibition, Hep-G2. The format is cell-based.
Description: as §3, §4

The subject of series [7] is human cervical cancer cell Hela. As to the kind of experiment: MTT proliferation inhibition, Hela. The format is cell-based. The note with it: 72 h.
Description: as §3, §4

The test system of series [8] is human neuroglioma cell BT-325. The series can be described thus: MTT proliferation inhibition, BT-325. The format is cell-based. As to conditions: BT-325, MTT, 72 h.
Description: as §3, §4

Series [9] concerns human medulloblastoma D341 Med. As to the kind of experiment: MTT proliferation inhibition, D341 Med. The note with it: 72 h. The format is cell-based.
Description: as §3, §4

For series [10], the system named is human gallbladder cancer cell GBC-SD. As to the kind of experiment: MTT proliferation inhibition, GBC-SD. The note with it: 72 h. The format is cell-based.
Description: as §3, §4

The nature of series [11]: Affect factor test: change in appearance (10 days). The format is physicochemical.
Description: as §1, §2

A short description of series [12]: Stability of crystal forms in hydrochloric acid solution pH=1.2 (37° C.). The format is physicochemical. The note with it: for Purity: pH = 1.2 hydrochloric acid solution, 37° C.; for Change of purity: stirred in hydrochloric acid medium pH=1.2 for 24 h. The method, then:
1.2 Stability of Different Crystal Forms in Hydrochloric Acid Solution with pH=1.2 (37° C.)

Where [13] appears, read: 72 h, listed as an amorphous form.
The mark [14] stands for this setting: 0 h (baseline), monofumarate monohydrate.

Structures are written as SMILES. pIC50: −log10 of the molar value.

Broadly, the pIC50 is −log10 of the IC50, conventionally taken in molar units. Higher therefore signals a low IC50. On to `C=CCc1cccc(/C=N/NC(=O)CN2CCCN(Cc3ccccc3)CC2)c1O` [Amorphous form, orbit azine monofumarate], for which the Purity in [1] (0 h (baseline)) stood at 97.980%; in series [1] (4 h) it was 87.266%; in [1] (24 h), 85.026%. Besides, the “Purity, High temperature (60° C.)” value in series [2] is given as 95.989%. Moreover, the “Purity, High humidity (RH = 92.5%)” value in series [2] is listed as 97.537%. The Crystal form result in series [2] was “converted to Form B under the condition of high humidity”. Also, the “Purity of raw material” value in series [2] amounted to 97.980%. Also, the “Purity, Illumination (ultraviolet lamp)” value in series [2] was found to be 96.880%. Moreover, the “Hygroscopicity, weight increase/%” value in “Hygroscopicity” (2014 Nov. 17 to 2014 Nov. 24) is on record as 118.620%. The “Hygroscopicity” value in the series “Hygroscopicity” (moisture absorption) is “significant weight increase”. Further, the pIC50 in series [3] (setting [13]) is 5.75; in [4] (setting [13]), 5.80; in [5] (setting [13]), 5.53; with human lymphoma cell U937 (setting [13]), 6.38; in series [6] (setting [13]), 5.08; in series [7] (listed as an amorphous form) it was 5.25. The pIC50 is 5.60 in series [8] (listed as an amorphous form), 6.35 in series [9] (listed as an amorphous form) and 5.18 in series [10] (listed as an amorphous form).
Take `C=CCc1cccc(/C=N/NC(=O)CN2CCCN(Cc3ccccc3)CC2)c1O` [Form A, orbit azine monofumarate]: the Purity in series [1] (0 h (baseline)) worked out at 98.069%; in series [1] (4 h) it was 87.153%; in series [1] (24 h) it was 84.864%. In [2], the “Purity, High temperature (60° C.)” value came to 97.665%. Moreover, in series [2], the “Purity, High humidity (RH = 92.5%)” value came out at 97.699%. Further, the Crystal form entry in [2] was “Form A”. In addition, the “Purity of raw material” value in [2] was 98.096%. Further, the “Stability of purity” value in series [2] is listed as “relatively stable”. In [2], the “Purity, Illumination (ultraviolet lamp)” value was 97.775%. The Appearance entry in series [11] (High humidity), in series [11] (High temperature) and in series [11] (Illumination) was “white solid” in each case. In addition, the “Water absorbability” value in the series “Hygroscopicity” (product of Example 1) is recorded as “no water absorbability”. Also, the negative-log IC50 (pIC50) in series [3] (72 h) was 5.75; in series [4] (72 h), 5.87; in series [5] (72 h), 5.52; with human lymphoma cell U937 (72 h) it was 6.37; in series [6] (72 h), 5.08; in series [7] it was 5.25. Further, the pIC50 is 5.54 in [8], 6.36 in series [9] and 5.19 in [10].
Regarding `C=CCc1cccc(/C=N/NC(=O)CN2CCCN(Cc3ccccc3)CC2)c1O` [Form C, orbit azine difumarate], the Purity in series [1] (0 h (baseline)) amounted to 94.584%; in series [1] (4 h), 83.292%; in [1] (24 h) it was 82.680%; in series [12] (0 h (baseline)) it was 97.865%; in series [12] (24 h), 72.042%; in series [12] (48 h), 71.017%. The “Change of purity” value in series [12] is reported as “decreased greatly”. Besides, in [2], the “Purity, High temperature (60° C.)” value turned out to be 97.244%. Also, in [2], the “Purity, High humidity (RH = 92.5%)” value is on record as 97.733%. The Crystal form entry in [2] was “Form C”. Also, the “Purity of raw material” value in series [2] was found to be 97.865%. For the same compound, the “Purity, Illumination (ultraviolet lamp)” value in [2] is on record as 95.696%. Moreover, the “Change of color” value in series [11] is reported as “turned slightly yellow”. Moreover, the Appearance entry in [11] (High humidity) and in series [11] (High temperature) was “white solid” each time. Besides, the negative-log IC50 (pIC50) was 5.72 in [3] (72 h); 5.89 in series [4] (72 h); 5.51 in [5] (72 h); 6.41 in the series on human lymphoma cell U937 (72 h); 5.09 in series [6] (72 h); 5.26 in [7]. The pIC50 in series [8] is 5.58; in series [9], 6.39; in series [10], 5.20.
As to `C=CCc1cccc(/C=N/NC(=O)CN2CCCN(Cc3ccccc3)CC2)c1O` [Form D, orbit azine difumarate], the Purity amounted to 97.999% in series [1] (0 h (baseline)), 85.418% in series [1] (4 h) and 84.552% in [1] (24 h). Besides, the negative-log IC50 (pIC50) was 5.78 in series [3] (Homo sapiens, SW480, 72 h); 5.84 in series [4] (Homo sapiens, MGC-803, 72 h); 5.54 in series [5] (Homo sapiens, A549, 72 h); 6.38 with human lymphoma cell U937 (Homo sapiens, U-937, 72 h); 5.09 in series [6] (Homo sapiens, HepG2, 72 h); 5.29 in series [7] (Homo sapiens, HeLa). Besides, the pIC50 in series [8] (Homo sapiens) was 5.57; in series [9] (Homo sapiens) it was 6.31; in series [10] (Homo sapiens) it was 5.16.
In the case of `C=CCc1cccc(/C=N/NC(=O)CN2CCCN(Cc3ccccc3)CC2)c1O` [Form B, orbit azine monofumarate monohydrate], in series [1] (pH = 6.8, 37° C.), the “Degradation in the medium with pH=6.8” value is “degraded to a slightly less extent”. The Purity in series [1] (setting [14]) was determined as 98.413%; in series [1] (4 h, monofumarate monohydrate), 93.112%; in series [1] (24 h, monofumarate monohydrate), 90.266%; in series [12] (setting [14]), 98.413%; in series [12] (24 h, monofumarate monohydrate) it was 79.443%; in series [12] (48 h, monofumarate monohydrate) it was 78.122%. In series [12] (hydrochloric acid medium pH=1.2), the “Extent of degradation compared” value is “degraded to a slightly less extent”. In series [12], the “Change of purity” value was “decreased greatly”. For the same compound, the “Purity, High temperature (60° C.)” value in series [2] (monofumarate monohydrate) came out at 97.809%. Moreover, in series [2] (monofumarate monohydrate), the “Purity, High humidity (RH = 92.5%)” value is 98.176%. In addition, in [2] (monofumarate monohydrate), the Crystal form entry was “Form B”. In [2] (monofumarate monohydrate), the “Purity of raw material” value is given as 98.413%. Moreover, the “Stability of purity” value in series [2] is on record as “relatively stable”. In series [2] (monofumarate monohydrate), the “Purity, Illumination (ultraviolet lamp)” value is 98.116%. Also, the Appearance entry is “white solid” in series [11] (High humidity, monofumarate monohydrate); “white solid” in series [11] (High temperature, monofumarate monohydrate); “white solid” in series [11] (Illumination, monofumarate monohydrate). Besides, the negative-log IC50 (pIC50) in series [3] (72 h, monofumarate monohydrate) was 5.70; in series [4] (72 h, monofumarate monohydrate) it was 5.86; in series [5] (72 h, monofumarate monohydrate), 5.54; with human lymphoma cell U937 (72 h, monofumarate monohydrate) it was 6.31; in series [6] (72 h, monofumarate monohydrate) it was 5.08; in series [7] (monofumarate monohydrate), 5.24. For the same compound, the pIC50 was 5.64 in series [8] (monofumarate monohydrate), 6.37 in [9] (monofumarate monohydrate) and 5.21 in series [10] (monofumarate monohydrate).

For the origin of these results see patent US10561667B2, “Orbit azine-fumarate, hydrate, crystal form and preparation method therefor” (SHENZHEN ZHENXING MEDICAL TECHNOLOGY CO., LTD., priority 2015, dated 2020).
